Experimental data: ChEMBL document CHEMBL2429726, “Gamma secretase modulators” (ACS Med Chem Lett, 2013)

Experiments:
Rattus norvegicus = assay: Antialzheimer activity in CD rat assessed as reduction of amyloid beta42 level in CSF at 30 mg/kg, po after 3 hrs relative to control; assay type: functional; parameters: scale not given: the % may be the effect or the level left
Gamma-secretase = assay: Inhibition of gamma secretase-mediated amyloid beta42 production in HEK293 cells expressing APP after 5 hrs by sandwich immunoassay; assay type: cell-based, Homo sapiens

| Structure (SMILES) | Activity (Rattus norvegicus) | IC50 (Gamma-secretase) |
| --- | --- | --- |
| COc1cc(-c2noc3c2CCCC3(O)c2cc(F)cc(F)c2)ccc1-n1cnc(C)c1 (stereo unspecified) | 20% | 190 nM |
| COc1cc(-c2noc3c2CCCC3NCc2cc(F)cc(F)c2)ccc1-n1cnc(C)c1 (stereo unspecified) | 20% | 29 nM |
| COc1cc(-c2noc3c2CCCC3Nc2ccc(F)cc2)ccc1-n1cnc(C)c1 (stereo unspecified) | 58% | 39 nM |
